Columns and labels:
HL-60 [1] = assay: Cytotoxicity against human HL60 cells assessed as growth inhibition at 20 uM after 72 hrs by MTT assay relative to control; assay type: functional; details: HL-60, 72 h, read-out: GI
A549 [2] = assay: Cytotoxicity against human A549 cells assessed as growth inhibition at 20 uM after 72 hrs by SRB assay relative to control; assay type: functional; details: A549, 72 h, read-out: GI
HL-60 [3] = assay: Cytotoxicity against human HL60 cells assessed as growth inhibition after 72 hrs by MTT assay; assay type: functional, cell-based; details: HL-60, 72 h
A549 [4] = assay: Cytotoxicity against human A549 cells assessed as growth inhibition after 72 hrs by SRB assay; assay type: functional, cell-based; details: A549, 72 h

SMILES | inhibition of growth at 20 µM (HL-60 [1]) | inhibition of growth at 20 µM (A549 [2]) | IC50 (HL-60 [3]) | IC50 (A549 [4])
COC(=O)[C@@]1(C)CC(=O)C2=C(c3ccoc3)C[C@]3(C)C2=C1CC[C@H]3C | > 50% | > 50% | 10.5 µM | 8.4 µM
COC(=O)[C@]1(C)CCCC2=C1CC[C@@H](C)[C@]2(C)CCC1=CC(=O)O[C@H]1O | > 50% | > 50% | 11.8 µM | 5.2 µM
